Test results as given in patent US9783523B2, “N-acylimino heterocyclic compounds” (BASF SE, priority 2013, dated 2017).

How the values were obtained:
Format in all cases: in vivo
Myzus persicae = assay: Green peach aphid (Myzus persicae), systemic control, liquid artificial diet under membrane in 96-well microtiter plates; settings: 72 h, read-out: mortality in comparison with untreated controls
Excerpt: General conditions: If not otherwise specified, most test solutions are to be prepared as follows: The active compound is to be dissolved at the desired concentration in a mixture of 1:1 (vol:vol) distilled water:acteon. Further, the test solutions are to be prepared at the day of use (and, if not otherwised specified, in general at concentrations wt/vol).
For evaluating control of green peach aphid (Myzus persicae) through systemic means, the test unit consists of 96-well-microtiter plates containing liquid artificial diet under an artificial membrane.
The compounds are formulated using a solution containing 75% v/v water and 25% v/v DMSO. Different concentrations of formulated compounds are pipetted into the aphid diet, using a custom built pipetter, at two replications.
After application, 5-8 adult aphids are placed on the artificial membrane inside the microtiter plate wells. The aphids are then allowed to suck on the treated aphid diet and incubated at about 23+1° C. and about 50+5% relative humidity for 3 days. Aphid mortality and fecundity is then visually assessed.

Megoura viciae = assay: Vetch aphid (Megoura viciae), sprayed bean leaf disks in microtiter plates; settings: foliar, 144 h, read-out: mortality in comparison with untreated controls
Protocol: The active compounds were formulated in 3:1 (vol:vol) water:DMSO with different concentrations of formulated compounds.
Bean leaf disks were placed into microtiterplates filled with 0.8% agar-agar and 2.5 ppm OPUS™. The leaf disks were sprayed with 2.5 μl of the test solution and 5 to 8 adult aphids were placed into the microtiter plates which were then closed and kept at 23±1° C. and 50±5% relative humidity under fluorescent light for 6 days. Mortality was assessed on the basis of vital, reproduced aphids. Aphid mortality and fecundity was then visually assessed.

Aphis gossypi = assay: Cotton aphid (Aphis gossypi), infested cotton plants sprayed; settings: 120 h, read-out: mortality in comparison with untreated controls
Protocol: (§1) The active compounds were formulated in cyclohexanone as a 10,000 ppm solution supplied in 1.3 ml ABgene® tubes. These tubes were inserted into an automated electrostatic sprayer equipped with an atomizing nozzle and they served as stock solutions for which lower dilutions were made in 1:1 (vol:vol) water:aceton. A nonionic surfactant (Kinetic®) was included in the solution at a volume of 0.01% (v/v).
Cotton plants at the cotyledon stage were infested with aphids prior to treatment by placing a heavily infested leaf from the main aphid colony on top of each cotyledon. Aphids were allowed to transfer overnight to accomplish an infestation of 80-100 aphids per plant and the host leaf was removed. The infested plants were then sprayed by an automated electrostatic plant sprayer equipped with an atomizing spray nozzle. The plants were dried in the sprayer fume hood, removed from the sprayer, and then maintained in a growth room under fluorescent lighting in a 24-hr photoperiod at 25° C. and 20-40% relative humidity. Aphid mortality on the treated plants, relative to mortality on untreated control plants, was determined after 5 days.

Aphis craccivora = assay: Cowpea aphid (Aphis craccivora), potted cowpea plants sprayed; settings: 72 h, read-out: mortality in comparison with untreated controls
Protocol: The active compound is dissolved at the desired concentration in a mixture of 1:1 (vol:vol) distilled water:acetone. Surfactant (Alkamuls® EL 620) is added at a rate of 0.1% (vol/vol). The test solution is prepared at the day of use.
Potted cowpea plants are colonized with approximately 50-100 aphids of various stages by manually transferring a leaf tissue cut from infested plant 24 hours before application. Plants are sprayed after the pest population has been recorded. Treated plants are maintained on light carts at about 28° C. Percent mortality is assessed after 72 hours.

Dichromothrips corbetti = assay: Orchid thrips (Dichromothrips corbetti), floral-immersion technique; settings: 72 h, read-out: mortality in comparison with untreated controls
Protocol: Dichromothrips corbetti adults used for bioassay are obtained from a colony maintained continuously under laboratory conditions. For testing purposes, the test compound is diluted in a 1:1 mixture of acetone:water (vol:vol), plus 0.01% vol/vol Alkamuls® EL 620 surfactant.
Thrips potency of each compound is evaluated by using a floral-immersion technique. Plastic petri dishes are used as test arenas. All petals of individual, intact orchid flowers are dipped into treatment solution and allowed to dry. Treated flowers are placed into individual petri dishes along with about 20 adult thrips. The petri dishes are then covered with lids. All test arenas are held under continuous light and a temperature of about 28° C. for duration of the assay. After 3 days, the numbers of live thrips are counted on each flower, and along inner walls of each petri dish. The percent mortality is recorded 72 hours after treatment.

Nephotettix virescens = assay: Rice green leafhopper (Nephotettix virescens), sprayed rice seedlings; settings: 72 h, read-out: mortality in comparison with untreated controls
Protocol: (§2) Rice seedlings are cleaned and washed 24 hours before spraying. The active compounds are formulated in 50:50 acetone:water (vol:vol), and 0.1% vol/vol surfactant (EL 620) is added. Potted rice seedlings are sprayed with 5 ml test solution, air dried, placed in cages and inoculated with 10 adults. Treated rice plants are kept at about 28-29° C. and relative humidity of about 50-60%. Percent mortality is recorded after 72 hours.

Nilaparvata lugens = assay: Rice brown plant hopper (Nilaparvata lugens), sprayed rice seedlings; settings: 72 h, read-out: mortality in comparison with untreated controls
Protocol: as §2, with “compounds is” for “compounds are”, “acetone:water (vol:vol)” for “acetone:water (vol:vol),”, “620) was” for “620) is”

Anthonomus grandis = assay: Boll weevil (Anthonomus grandis), eggs on insect diet in 24-well microtiter plates; settings: 120 h, read-out: mortality in comparison with untreated controls
Protocol: The compounds were formulated in 3:1 (vol:vol) water:DMSO.
For evaluating control of boll weevil (Anthonomus grandis) the test unit consisted of 24-well-microtiter plates containing an insect diet and 20-30 A. grandis eggs. Different concentrations of formulated compounds were sprayed onto the insect diet at 20 μl, using a custom built micro atomizer, at two replications. After application, the microtiter plates were incubated at 23±1° C. and 50±5% relative humidity for 5 days. Egg and larval mortality was then visually assessed.

Ceratitis capitata = assay: Mediterranean fruitfly (Ceratitis capitata), eggs on insect diet in microtiter plates; settings: 120 h, read-out: mortality in comparison with untreated controls
Protocol: For evaluating control of Mediterranean fruitfly (Ceratitis capitata) the test unit consisted of microtiter plates containing an insect diet and 50-80 C. capitata eggs.
The compounds were formulated using a solution containing 75% v/v water and 25% v/v DMSO. Different concentrations of formulated compounds were sprayed onto the insect diet at 5 μl, using a custom built micro atomizer, at two replications.
After application, microtiter plates were incubated at about 28±1° C. and about 80±5% relative humidity for 5 days. Egg and larval mortality was then visually assessed.

Bemisia argentifolii = assay: Silverleaf whitefly (Bemisia argentifolii) adults, sprayed cotton plants; settings: 72 h, read-out: mortality in comparison with untreated controls
Protocol: as §1, with “water: aceton.” for “water:aceton.”
Cotton plants at the cotyledon stage (one plant per pot) were sprayed by an automated electrostatic plant sprayer equipped with an atomizing spray nozzle. The plants were dried in the sprayer fume hood and then removed from the sprayer. Each pot was placed into a plastic cup and 10 to 12 whitefly adults (approximately 3-5 days old) were introduced. The insects were collected using an aspirator and 0.6 cm, nontoxic Tygon® tubing (R-3603) connected to a barrier pipette tip. The tip, containing the collected insects, was then gently inserted into the soil containing the treated plant, allowing insects to crawl out of the tip to reach the foliage for feeding. Cups were covered with a reusable screened lid (150-micron mesh polyester screen PeCap from Tetko, Inc.). […] Mortality was assessed 3 days after treatment, compared to untreated control plants.

Heliothis virescens = assay: Tobacco budworm (Heliothis virescens), eggs on insect diet in 96-well microtiter plates; settings: 120 h, read-out: mortality in comparison with untreated controls
Protocol: For evaluating control of tobacco budworm (Heliothis virescens) the test unit consisted of 96-well-microtiter plates containing an insect diet and 15-25 H. virescens eggs.
The compounds were formulated using a solution containing 75% v/v water and 25% v/v DMSO. Different concentrations of formulated compounds were sprayed onto the insect diet at 10 μl, using a custom built micro atomizer, at two replications.
After application, microtiter plates were incubated at about 28+1° C. and about 80+5% relative humidity for 5 days. Egg and larval mortality was then visually assessed.

Plutella xylostella = assay: Diamond back moth (Plutella xylostella), dipped cabbage leaves; settings: 72 h, read-out: mortality in comparison with untreated controls
Protocol: The active compound is dissolved at the desired concentration in a mixture of 1:1 (vol:vol) distilled water:aceteone. Surfactant (Alkamuls® EL 620) is added at a rate of 0.1% (vol/vol). The test solution is prepared at the day of use.
Leaves of cabbage were dipped in test solution and air-dried. Treated leaves were placed in petri dish eslined with moist filter paper and inoculated with ten 3rd instar larvae. Mortality was recorded 72 hours after treatment. Feeding damages were also recorded using a scale of 0-100%.

Spodoptera eridania = assay: Southern armyworm (Spodoptera eridania), sprayed lima bean plants; settings: 96 h, read-out: mortality in comparison with untreated controls
Protocol: as §1, with “in” for “in 1.3 ml ABgene®”, “The” for “These”, “50% acetone:50% water (v/v).” for “1:1 (vol:vol) water:aceton.”
Lima bean plants (variety Sieva) were grown 2 plants to a pot and selected for treatment at the 1st true leaf stage. Test solutions were sprayed onto the foliage by an automated electrostatic plant sprayer equipped with an atomizing spray nozzle. The plants were dried in the sprayer fume hood and then removed from the sprayer. Each pot was placed into perforated plastic bags with a zip closure. About 10 to 11 armyworm larvae were placed into the bag and the bags zipped closed. Test plants were maintained in a growth room at about 25° C. and about 20-40% relative humidity for 4 days, avoiding direct exposure to fluorescent light (24 hour photoperiod) to prevent trapping of heat inside the bags. Mortality and reduced feeding were assessed 4 days after treatment, compared to untreated control plants.

Nezara viridula = assay: Green soldier stink bug (Nezara viridula), sprayed soybean pods in Petri dishes; settings: 120 h, read-out: mortality in comparison with untreated controls
Protocol: The active compound is dissolved at the desired concentration in a mixture of 1:1 (vol:vol) distilled water:aceteone. Surfactant (Kinetic HV) is added at a rate of 0.01% (vol/vol). The test solution is prepared at the day of use.
Soybean pods were placed in 90×50 mm glass Petri dishes lined with moist filter paper and inoculated with ten late 3rd instar N. viridula. Using a hand atomizer, an approximately 2 ml solution is sprayed into each Petri dish. Treated cups were kept at about 25-26° C. and relative humidity of about 65-70%. Percent mortality was recorded after 5 days.

CO/N=C/C(=O)/N=c1\ccccn1Cc1ccc(Cl)nc1 [Compound I-15]
≥ 75%: mortality at 2500 ppm (Myzus persicae) | mortality at 2500 ppm (Megoura viciae) | mortality at 300 ppm (Aphis gossypi) | mortality at 500 ppm (Aphis craccivora) | mortality at 500 ppm (Dichromothrips corbetti) | mortality at 300 ppm (Nephotettix virescens) | mortality at 500 ppm (Nilaparvata lugens) | mortality at 2500 ppm (Anthonomus grandis) | mortality at 2500 ppm (Ceratitis capitata) | mortality at 300 ppm (Bemisia argentifolii) | mortality at 2500 ppm (Heliothis virescens) | mortality at 500 ppm (Plutella xylostella) | mortality at 300 ppm (Spodoptera eridania) | mortality at 500 ppm (Nezara viridula)
